Source: patent US20120309739A1, “AKT / PKB INHIBITORS” (ALMAC DISCOVERY LIMITED, priority 2009, published 2012)
Where a name gives a salt, the structure may show the parent alone.

Tests used:
Assay type in all cases: biochemical
[1] = molecular target: T1, AKT3 (Homo sapiens, UniProt Q9Y243); assay: AKT Kinase Assay (IMAP fluorescent polarisation) vs AKT3; conditions: activated AKT3, FAM Crosstide substrate
T1 construct: purchased SignalChem
Description: (§1) Testing of the compounds was performed using an AKT Kinase Assay:
(§2) Activated AKT isoforms 1, 2 and 3 were assayed utilising a 5′ FAM Crosstide (Seq. GRPRTSSFAEG-OH). The extent of kinase phosphorylation was determined by fluorescent polarisation using IMAP progressive binding reagent, which introduces binding beads which allow the reagent to specifically bind to phosphate residues via covalent co-ordination complex bonds.
(§3) iMAP binding solution stops Crosstide/kinase interaction and specifically binds phosphorylated substrates. The degree of phosphorylation is determined by fluorescent polarisation (excitation 485 nm; emission 528 nm) or the reduction in speed of rotation of the excited substrate.
(§4) The following materials were used in the assay: • a) Activated AKT isoforms (SignalChem.) dissolved in Complete Reaction buffer at a pre-determined concentration selected so that the assay was carried out in the linear range. • b) AKT substrate peptide: FAM Crosstide (R7110) Molecular Devices, diluted in complete reaction buffer. • c) iMAP Progressive Screening Express Kit (R8127) Molecular Devices • d) Complete Reaction Buffer containing 0.1% BSA, 10 mM Tris-HCl, 10 mM MgCl2, 0.05% NaN3 and 0.01% phosphate free BSA, 1 mM DTT • e) Progressive Binding Solution containing 75% Buffer A, 25% Buffer B and low volume Binding Reagent which contains the binding entity for the assay • f) ATP diluted in complete reaction buffer • g) Black polystyrene 384 well assay plates (Nunc). • h) Biotek Synergy 4 Hybrid Plate reader.
(§5) 50 μl of test compound was dissolved in DMSO (Sigma Aldrich) and serially diluted in complete reaction buffer to give a fourteen point half log dose response and plated into 384 well black plates. The compound was incubated at room temperature with activated AKT isoform ([…]) at the pre-determined concentration, for 45 minutes.
(§6) […] of ATP solution mixed with 2.5 μl of AKT substrate peptide (FAM Crosstide (R7110) Molecular Devices) were dispensed into each well and the plate centrifuged at 1000 rpm for 20 seconds to ensure homogenous mixing of reagents. The reaction mix was incubated in the dark for one hour at room temperature.
(§7) The kinase reaction was stopped by the addition of Progressive Binding Solution and the mixture allowed to equilibrate for one hour in the dark, at room temperature.
(§8) The fluorescent polarisation generated in each well was determined using a […] Synergy 4 Hybrid plate reader. In brief, each reaction solution was excited at 485 nm with the emission measured at 528 nm in both the parallel and perpendicular pathway.
(§9) The polarisation value generated in each well was calculated by Gen5 software (Biotek) and the % inhibition of kinase activity compared to vehicle control was calculated via GraphPad Prism. IC50 values for each compound were calculated by non-linear regression analysis using Prism software.
(§10) All plates were internally controlled by two methods. Firstly, by calculating the signal:noise ratio; based on kinase polarisation without inhibitor and polarisation generated by complete reaction buffer in the absence of activated kinase. Secondly by determining IC50 values generated by known inhibitors of the AKT isoforms.

[2] = molecular target: T2, AKT1 (Homo sapiens, UniProt P31749); assay: AKT Kinase Assay (IMAP fluorescent polarisation) vs AKT1; conditions: activated AKT1, FAM Crosstide substrate
T2 construct: purchased SignalChem
Description: as §1, §2, §3, §4, §5, §6, §7, §8, §9, §10

[3] = molecular target: T3, AKT2 (Homo sapiens, UniProt P31751); assay: AKT Kinase Assay (IMAP fluorescent polarisation) vs AKT2; conditions: activated AKT2, FAM Crosstide substrate
T3 construct: purchased SignalChem
Description: as §1, §2, §3, §4, §5, §6, §7, §8, §9, §10

T3 sequence (P31751 whole entry): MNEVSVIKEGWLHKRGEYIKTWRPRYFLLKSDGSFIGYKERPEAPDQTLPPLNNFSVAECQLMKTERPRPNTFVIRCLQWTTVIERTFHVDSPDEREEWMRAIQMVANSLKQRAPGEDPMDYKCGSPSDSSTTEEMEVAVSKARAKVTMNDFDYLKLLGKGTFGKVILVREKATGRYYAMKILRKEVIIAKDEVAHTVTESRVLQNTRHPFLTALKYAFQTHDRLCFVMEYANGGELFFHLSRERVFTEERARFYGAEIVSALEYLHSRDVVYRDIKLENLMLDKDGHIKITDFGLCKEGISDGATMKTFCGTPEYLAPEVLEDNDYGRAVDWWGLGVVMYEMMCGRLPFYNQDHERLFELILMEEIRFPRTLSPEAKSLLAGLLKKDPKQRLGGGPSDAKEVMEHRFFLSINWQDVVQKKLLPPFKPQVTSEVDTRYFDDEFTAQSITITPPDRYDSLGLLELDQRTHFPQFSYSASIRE
T2 sequence (P31749 whole entry): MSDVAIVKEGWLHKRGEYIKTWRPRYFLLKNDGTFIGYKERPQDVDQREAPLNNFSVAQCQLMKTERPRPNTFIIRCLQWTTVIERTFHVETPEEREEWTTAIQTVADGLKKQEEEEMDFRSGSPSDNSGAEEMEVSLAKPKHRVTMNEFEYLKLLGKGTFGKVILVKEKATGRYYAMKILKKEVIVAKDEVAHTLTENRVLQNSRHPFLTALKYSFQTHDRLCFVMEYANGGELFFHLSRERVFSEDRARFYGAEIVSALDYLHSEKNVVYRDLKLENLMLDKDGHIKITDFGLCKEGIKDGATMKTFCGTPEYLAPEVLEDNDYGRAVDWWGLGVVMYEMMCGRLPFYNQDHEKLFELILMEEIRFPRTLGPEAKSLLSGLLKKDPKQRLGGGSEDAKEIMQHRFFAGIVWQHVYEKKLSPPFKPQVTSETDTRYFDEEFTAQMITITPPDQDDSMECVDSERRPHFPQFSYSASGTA
T1 sequence (Q9Y243 whole entry): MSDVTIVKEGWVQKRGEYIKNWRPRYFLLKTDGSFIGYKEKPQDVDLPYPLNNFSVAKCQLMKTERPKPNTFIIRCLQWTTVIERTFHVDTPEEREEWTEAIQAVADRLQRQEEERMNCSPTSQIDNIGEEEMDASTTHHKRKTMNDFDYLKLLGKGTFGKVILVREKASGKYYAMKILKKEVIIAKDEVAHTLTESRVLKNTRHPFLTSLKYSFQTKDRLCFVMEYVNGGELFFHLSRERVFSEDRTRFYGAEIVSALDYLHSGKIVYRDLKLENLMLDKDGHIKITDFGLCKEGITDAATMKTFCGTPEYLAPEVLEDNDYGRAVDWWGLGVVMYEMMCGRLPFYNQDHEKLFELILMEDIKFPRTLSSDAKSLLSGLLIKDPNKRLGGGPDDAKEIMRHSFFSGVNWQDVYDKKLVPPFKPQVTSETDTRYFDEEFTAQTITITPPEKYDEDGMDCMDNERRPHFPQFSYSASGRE

Row | SMILES | IC50 [1] | IC50 [2] | IC50 [3]
1 | NC1(c2ccc(-c3oc4cnccc4c3I)cc2)CCC1 [Example 3, 1-(4-(3-Iodofuro[2,3-c]pyridin-2-yl)phenyl)cyclobutanamine] | 1000 to 10000 nM | 1000 to 10000 nM | 1000 to 10000 nM
2 | NC1(c2ccc(-c3oc4ncc(Br)cc4c3-c3ccccc3)cc2)CCC1 [Example 11, 1-(4-(5-Bromo-3-phenylfuro[2,3-b]pyridin-2-yl)phenyl)cyclobutanamine.HCl] | > 10000 nM | > 10000 nM | > 10000 nM
3 | COc1nc(N2CCOCC2)nc2oc(-c3ccc(C4(N)CCC4)cc3)c(-c3ccccc3)c12 [Example 13, 1-(4-(4-Methoxy-2-morpholino-5-phenylfuro[2,3-d]pyrimidin-6-yl)phenyl)cyclobutanamine] | 1000 to 10000 nM | 1000 to 10000 nM | 100 to 1000 nM
4 | COc1nc(NCCN(C)C)nc2oc(-c3ccc(C4(N)CCC4)cc3)c(-c3ccccc3)c12 [Example 14, N^1-(6-(4-(1-Aminocyclobutyl)phenyl)-4-methoxy-5-phenylfuro[2,3-d]pyrimidin-2-yl)-N^2,N^2-dimethylethane-1,2-diamine] | 1000 to 10000 nM | 100 to 1000 nM | 100 to 1000 nM
5 | NC1(c2ccc(-c3sc4nc[nH]c(=O)c4c3-c3ccccc3)cc2)CCC1 [Example 16, 6-(4-(1-Aminocyclobutyl)phenyl)-5-phenylthieno[2,3-d]pyrimidin-4(3H)-one] | 1000 to 10000 nM | 1000 to 10000 nM | 100 to 1000 nM
6 | COc1nccc2oc(-c3ccc(C4(N)CCC4)cc3)c(-c3ccccc3)c12 [Example 17, 1-(4-(4-Methoxy-3-phenylfuro[3,2-c]pyridin-2-yl)phenyl)cyclobutanamine] | > 10000 nM | 1000 to 10000 nM | 1000 to 10000 nM

More lines, now with the values ahead:

Row | IC50 [1] | IC50 [2] | IC50 [3] | SMILES
7 | > 10000 nM | > 10000 nM | 1000 to 10000 nM | NC1(c2ccc(-c3oc4cnccc4c3-c3ccccc3)cc2)CCC1 [Example 2, 1-(4-(3-Phenylfuro[2,3-c]pyridin-2-yl)phenyl)cyclobutanamine]
8 | > 10000 nM | 100 to 1000 nM | 1000 to 10000 nM | Cn1ccc2oc(-c3ccc(C4(N)CCC4)cc3)c(-c3ccccc3)c2c1=O [Example 4, 2-(4-(1-Aminocyclobutyl)phenyl)-5-methyl-3-phenylfuro[3,2-c]pyridin-4(5H)-one]
9 | > 10000 nM | 1000 to 10000 nM | 1000 to 10000 nM | NC(=O)c1ccc2c(-c3ccccc3)c(-c3ccc(C4(N)CCC4)cc3)oc2c1 [Example 5, 2-(4-(1-Aminocyclobutyl)phenyl)-3-phenylbenzofuran-6-carboxamide]
10 | > 10000 nM | 1000 to 10000 nM | 1000 to 10000 nM | N#Cc1ccc2oc(-c3ccc(C4(N)CCC4)cc3)c(-c3ccccc3)c2c1 [Example 6, 2-(4-(1-Aminocyclobutyl)phenyl)-3-phenylbenzofuran-5-carbonitrile]
11 | > 10000 nM | 100 to 1000 nM | 100 to 1000 nM | NC(=O)c1ccc2oc(-c3ccc(C4(N)CCC4)cc3)c(-c3ccccc3)c2c1 [Example 7, 2-(4-(1-Aminocyclobutyl)phenyl)-3-phenylbenzofuran-5-carboxamide]
12 | > 10000 nM | 1000 to 10000 nM | 1000 to 10000 nM | N#Cc1cccc2c(-c3ccccc3)c(-c3ccc(C4(N)CCC4)cc3)oc12 [Example 8, 2-(4-(1-Aminocyclobutyl)phenyl)-3-phenylbenzofuran-7-carbonitrile]
13 | > 10000 nM | 1000 to 10000 nM | 1000 to 10000 nM | NC(=O)c1cccc2c(-c3ccccc3)c(-c3ccc(C4(N)CCC4)cc3)oc12 [Example 9, 2-(4-(1-Aminocyclobutyl)phenyl)-3-phenylbenzofuran-7-carboxamide.2HCl]
14 | > 10000 nM | 100 to 1000 nM | 1000 to 10000 nM | NC1(c2ccc(-c3oc4cc[nH]c(=O)c4c3-c3ccccc3)cc2)CCC1 [Example 18, 2-(4-(1-Aminocyclobutyl)phenyl)-3-phenylfuro[3,2-c]pyridin-4(5H)-one]
